The test system of the assay is MV-4-11 cells. Nature of the assay: Gene expression microarray analysis (Affymetrix PrimeView) and GSEA. The assay is classed as cell-based, human. More on the design: RFU PODN (11730768_x_at) / Fold change /veh PODN (11730768_x_at) / RFU LINC00158 (11744669_a_at) / Fold change /veh LINC00158 (11744669_a_at) / RFU DUSP10 (11751237_a_at) / Fold change /veh DUSP10 (11751237_a_at) / RFU ID3 (11757404_x_at) / Fold change /veh ID3 (11757404_x_at) / RFU PLEKHG5 (11737974_s_at) / Fold change /veh PLEKHG5 (11737974_s_at) / RFU LRRC4B (11730491_at) / Fold change /veh LRRC4B (11730491_at) / RFU GIMAP4 (11747438_a_at) / Fold change /veh GIMAP4 (11747438_a_at) / RFU KRT8 (11758183_x_at) / Fold change /veh KRT8 (11758183_x_at) / RFU CNN1 (11734310_a_at) / Fold change /veh CNN1 (11734310_a_at) / RFU VPS37D (11726825_at) / Fold change /veh VPS37D (11726825_at) / RFU C10orf10 (11716522_x_at) / Fold change /veh C10orf10 (11716522_x_at) / RFU KIR2DL2 /// KIR2DL4 /// KIR2DL5A /// KIR2DL5B /// KIR2DS1 /// KIR2DS2 /// KIR2DS3 /// KIR2DS4 /// KIR3DL3 /// KIR3DL3 /// KIR3DS1 (11738374_at) / Fold change /veh KIR2DL2 /// KIR2DL4 /// KIR2DL5A /// KIR2DL5B /// KIR2DS1 /// KIR2DS2 /// KIR2DS3 /// KIR2DS4 /// KIR3DL3 /// KIR3DL3 /// KIR3DS1 (11738374_at) / RFU C1QL1 (11718748_at) / Fold change /veh C1QL1 (11718748_at) / RFU TMPRSS4 (11747572_a_at) / Fold change /veh TMPRSS4 (11747572_a_at) / RFU HAMP (11756126_x_at) / Fold change /veh HAMP (11756126_x_at) / RFU RNFT2 (11725882_a_at) / Fold change /veh RNFT2 (11725882_a_at) / RFU NR4A2 (11747474_a_at) / Fold change /veh NR4A2 (11747474_a_at) / RFU ABCC12 (11746883_a_at) / Fold change /veh ABCC12 (11746883_a_at) / RFU TMEM136 (11760407_x_at) / Fold change /veh TMEM136 (11760407_x_at) / RFU CLDN22 /// WWC2 (11732394_at) / Fold change /veh CLDN22 /// WWC2 (11732394_at) / RFU HLA-DPB1 (11760878_x_at) / Fold change /veh HLA-DPB1 (11760878_x_at) / RFU SPINT1 (11716480_a_at) / Fold change /veh SPINT1 (11716480_a_at) / RFU GAP43 (11754022_s_at) / Fold change /veh GAP43 (11754022_s_at) / RFU A4GNT (11735810_at) / Fold change /veh A4GNT (11735810_at) / RFU PRB3 (11715151_x_at) / Fold change /veh PRB3 (11715151_x_at) / RFU TUBB4B (11761932_at) / Fold change /veh TUBB4B (11761932_at) / RFU CAPN14 (11732068_a_at) / Fold change /veh CAPN14 (11732068_a_at) / RFU TMCC2 (11721928_a_at) / Fold change /veh TMCC2 (11721928_a_at) / RFU IRGQ (11745062_a_at) / Fold change /veh IRGQ (11745062_a_at) / RFU FAM174B (11720279_a_at) / Fold change /veh FAM174B (11720279_a_at) / RFU TMPRSS4 (11748680_a_at) / Fold change /veh TMPRSS4 (11748680_a_at) / RFU FAM212B (11763350_a_at) / Fold change /veh FAM212B (11763350_a_at) / RFU PLEKHG5 (11743358_a_at) / Fold change /veh PLEKHG5 (11743358_a_at) / RFU ZSCAN30 (11745921_a_at) / Fold change /veh ZSCAN30 (11745921_a_at) / RFU CMKLR1 (11741424_a_at) / Fold change /veh CMKLR1 (11741424_a_at) / RFU LOC101060620 /// MAPK8IP1 (11723275_at) / Fold change /veh LOC101060620 /// MAPK8IP1 (11723275_at) / RFU SPTSSB (11747773_x_at) / Fold change /veh SPTSSB (11747773_x_at) / RFU PRSS12 (11739890_at) / Fold change /veh PRSS12 (11739890_at) / RFU BIN1 (11741810_x_at) / Fold change /veh BIN1 (11741810_x_at) / RFU WNT11 (11732464_a_at) / Fold change /veh WNT11 (11732464_a_at) / RFU C10orf10 (11716521_a_at) / Fold change /veh C10orf10 (11716521_a_at) / RFU C5orf56 (11738089_at) / Fold change /veh C5orf56 (11738089_at) / RFU CYB561 (11721691_x_at) / Fold change /veh CYB561 (11721691_x_at) / RFU ANKRD19P (11752326_a_at) / Fold change /veh ANKRD19P (11752326_a_at) / RFU OR2T12 /// OR2T33 /// OR2T8 (11738714_s_at) / Fold change /veh OR2T12 /// OR2T33 /// OR2T8 (11738714_s_at) / RFU VCAN (11748164_a_at) / Fold change /veh VCAN (11748164_a_at) / RFU JSRP1 (11732532_at) / Fold change /veh JSRP1 (11732532_at) / RFU KRTAP10-11 (11738290_x_at) / Fold change /veh KRTAP10-11 (11738290_x_at) / RFU MYO3A (11730013_a_at) / Fold change /veh MYO3A (11730013_a_at) / RFU EBF3 (11725865_a_at) / Fold change /veh EBF3 (11725865_a_at) / RFU CAMK2N1 (11719241_x_at) / Fold change /veh CAMK2N1 (11719241_x_at) / RFU C5orf56 (11738088_a_at) / Fold change /veh C5orf56 (11738088_a_at) / RFU OLFML3 (11715873_a_at) / Fold change /veh OLFML3 (11715873_a_at) / RFU LOC100653217 /// NTM (11731650_a_at) / Fold change /veh LOC100653217 /// NTM (11731650_a_at) / RFU MAPK11 (11762145_a_at) / Fold change /veh MAPK11 (11762145_a_at) / RFU FIZ1 (11724087_x_at) / Fold change /veh FIZ1 (11724087_x_at) / RFU OASL (11726364_x_at) / Fold change /veh OASL (11726364_x_at) / RFU SOX15 (11748057_x_at) / Fold change /veh SOX15 (11748057_x_at) / RFU CD79A (11719716_a_at) / Fold change /veh CD79A (11719716_a_at) / RFU HIST1H1D (11736915_at) / Fold change /veh HIST1H1D (11736915_at) / RFU CASKIN2 (11723855_a_at) / Fold change /veh CASKIN2 (11723855_a_at) / RFU LOC730098 (11760151_x_at) / Fold change /veh LOC730098 (11760151_x_at) / RFU OR4N2 (11742367_at) / Fold change /veh OR4N2 (11742367_at) / RFU PRRT2 (11749266_a_at) / Fold change /veh PRRT2 (11749266_a_at) / RFU SNX32 (11753110_a_at) / Fold change /veh SNX32 (11753110_a_at) / RFU CDHR5 (11726645_a_at) / Fold change /veh CDHR5 (11726645_a_at) / RFU RCAN1 (11760418_a_at) / Fold change /veh RCAN1 (11760418_a_at) / RFU FAM167A (11723789_a_at) / Fold change /veh FAM167A (11723789_a_at) / RFU FAM26E (11764081_at) / Fold change /veh FAM26E (11764081_at) / RFU ISYNA1 (11749810_s_at) / Fold change /veh ISYNA1 (11749810_s_at) / RFU ACY1 (11761880_at) / Fold change /veh ACY1 (11761880_at) / RFU 11764098_at / Fold change /veh 11764098_at / RFU SAMD14 (11745864_x_at) / Fold change /veh SAMD14 (11745864_x_at) / RFU NPB (11741838_a_at) / Fold change /veh NPB (11741838_a_at) / RFU TMPRSS6 (11731388_a_at) / Fold change /veh TMPRSS6 (11731388_a_at) / RFU KRTAP10-2 (11738614_at) / Fold change /veh KRTAP10-2 (11738614_at) / RFU ARHGAP8 /// PRR5-ARHGAP8 (11727945_x_at) / Fold change /veh ARHGAP8 /// PRR5-ARHGAP8 (11727945_x_at) / RFU KRTAP5-7 /// NADSYN1 (11734609_at) / Fold change /veh KRTAP5-7 /// NADSYN1 (11734609_at) / RFU RASL12 (11751679_a_at) / Fold change /veh RASL12 (11751679_a_at) / RFU CDKN2B (11736163_a_at) / Fold change /veh CDKN2B (11736163_a_at) / RFU PRF1 (11729649_at) / Fold change /veh PRF1 (11729649_at) / RFU, ZNF638 /// ZNF638-IT1 / Fold change vs veh, ZNF638 /// ZNF638-IT1 / RFU, PANK3 / Fold change vs veh, PANK3 / RFU, SH3YL1 / Fold change vs veh, SH3YL1 / RFU, ZEB2 / Fold change vs veh, ZEB2 / RFU, NRIP1 / Fold change vs veh, NRIP1 / RFU, PTTG1IP / Fold change vs veh, PTTG1IP / RFU, CAPN2 / Fold change vs veh, CAPN2 / RFU, MED14 / Fold change vs veh, MED14 / RFU, SNORA58 / Fold change vs veh, SNORA58 / RFU, C1orf63 / Fold change vs veh, C1orf63 / RFU, LRRFIP1 / Fold change vs veh, LRRFIP1 / RFU, NDUFAF7 / Fold change vs veh, NDUFAF7 / RFU, SLC12A2 / Fold change vs veh, SLC12A2 / RFU, IBTK / Fold change vs veh, IBTK / RFU, ESF1 / Fold change vs veh, ESF1 / Fold change vs veh, TMEM50B / RFU, TAOK1 / Fold change vs veh, TAOK1 / RFU, ACBD3 / Fold change vs veh, ACBD3 / RFU, TMA16 / Fold change vs veh, TMA16 / RFU, RWDD3 / Fold change vs veh, RWDD3 / RFU, BCAT1 / Fold change vs veh, BCAT1 / RFU, EDEM3 / Fold change vs veh, EDEM3 / RFU, TMEM33 / Fold change vs veh, TMEM33 / RFU, WDR75 / Fold change vs veh, WDR75 / RFU, AHCTF1 / Fold change vs veh, AHCTF1 / RFU, TFRC / Fold change vs veh, TFRC / RFU, ZDHHC17 / Fold change vs veh, ZDHHC17 / RFU, NOM1 / Fold change vs veh, NOM1 / RFU, ARL8B / Fold change vs veh, ARL8B / RFU, ZBTB11 / Fold change vs veh, ZBTB11 / RFU, TAMM41 / Fold change vs veh, TAMM41 / RFU, KIAA1704 /// LOC100996395 / Fold change vs veh, KIAA1704 /// LOC100996395 / RFU, ING1 / Fold change vs veh, ING1 / RFU, TRMT61B / Fold change vs veh, TRMT61B / RFU, FUBP3 / Fold change vs veh, FUBP3 / RFU, TP53 / Fold change vs veh, TP53 / RFU, TNKS2 / Fold change vs veh, TNKS2 / RFU, ZFP14 / Fold change vs veh, ZFP14 / RFU, ACTR2 / Fold change vs veh, ACTR2 / RFU, PPP3R1 / Fold change vs veh, PPP3R1 / RFU, PIK3R1 / Fold change vs veh, PIK3R1 / RFU, HNRNPA1 / Fold change vs veh, HNRNPA1 / RFU, RNF170 / Fold change vs veh, RNF170 / RFU, ZNF28 / Fold change vs veh, ZNF28 / RFU, RNGTT / Fold change vs veh, RNGTT / RFU, OGT / Fold change vs veh, OGT / RFU, BRD1 / Fold change vs veh, BRD1 / RFU, MARS / Fold change vs veh, MARS / RFU, ZNF655 / Fold change vs veh, ZNF655 / RFU, FAHD1 / Fold change vs veh, FAHD1 / RFU, BDP1 / Fold change vs veh, BDP1 / RFU, LRRCC1 / Fold change vs veh, LRRCC1 / RFU, ARID1A / Fold change vs veh, ARID1A / RFU, ZNF146 / Fold change vs veh, ZNF146 / RFU, ZNF330 / Fold change vs veh, ZNF330 / RFU, GPN3 / Fold change vs veh, GPN3 / RFU, C9orf123 / Fold change vs veh, C9orf123 / RFU, N4BP2L2 / Fold change vs veh, N4BP2L2 / RFU, ARFIP1 / Fold change vs veh, ARFIP1 / RFU, FAM179B / Fold change vs veh, FAM179B / RFU, BCL10 / Fold change vs veh, BCL10 / RFU, UHRF1BP1L / Fold change vs veh, UHRF1BP1L / RFU, BET1 / Fold change vs veh, BET1 / RFU, CNOT2 / Fold change vs veh, CNOT2 / RFU, ZNF268 / Fold change vs veh, ZNF268 / Fold change vs veh, ZNF507 / RFU, DGCR2 / Fold change vs veh, DGCR2 / RFU, WDSUB1 / Fold change vs veh, WDSUB1 / Fold change vs veh, HSP90B1 /// MIR3652 / RFU, ADSS / Fold change vs veh, ADSS / RFU, GK / Fold change vs veh, GK / RFU, ZNF148 / Fold change vs veh, ZNF148 / RFU, TAF9 / Fold change vs veh, TAF9 / RFU, SLC1A5 / Fold change vs veh, SLC1A5 / RFU, SLMO2 / Fold change vs veh, SLMO2 / RFU, ABCC4 / Fold change vs veh, ABCC4 / RFU, LOC101060439 /// RAP1B / Fold change vs veh, LOC101060439 /// RAP1B / RFU, RFX7 / Fold change vs veh, RFX7 / RFU, GTPBP10 / Fold change vs veh, GTPBP10 / RFU, CNEP1R1 / Fold change vs veh, CNEP1R1 / RFU, BIVM-ERCC5 /// ERCC5 / Fold change vs veh, BIVM-ERCC5 /// ERCC5 / RFU, ILF3 / Fold change vs veh, ILF3 / RFU 11762660_at / Fold change /veh 11762660_at / RFU VCAN (11757783_s_at) / Fold change /veh VCAN (11757783_s_at) / RFU DDX43 (11728927_at) / Fold change /veh DDX43 (11728927_at) / RFU KRT8 (11758188_x_at) / Fold change /veh KRT8 (11758188_x_at) / RFU NKD1 (11759106_at) / Fold change /veh NKD1 (11759106_at) / RFU SRD5A1 (11742802_a_at) / Fold change /veh SRD5A1 (11742802_a_at) / RFU TPSAB1 /// TPSB2 (11721975_s_at) / Fold change /veh TPSAB1 /// TPSB2 (11721975_s_at) / RFU GSTM3 (11746129_a_at) / Fold change /veh GSTM3 (11746129_a_at) / RFU IL23R (11737362_x_at) / Fold change /veh IL23R (11737362_x_at) / RFU TMEM51 (11727254_a_at) / Fold change /veh TMEM51 (11727254_a_at) / RFU PIWIL2 (11732686_x_at) / Fold change /veh PIWIL2 (11732686_x_at) / RFU ORM1 (11744905_x_at) / Fold change /veh ORM1 (11744905_x_at) / RFU CCDC152 (11743942_at) / Fold change /veh CCDC152 (11743942_at) / RFU ECM1 (11717891_a_at) / Fold change /veh ECM1 (11717891_a_at) / RFU IL23R (11748794_a_at) / Fold change /veh IL23R (11748794_a_at) / RFU TNFAIP8L3 (11732012_x_at) / Fold change /veh TNFAIP8L3 (11732012_x_at) / RFU MBOAT4 (11741988_at) / Fold change /veh MBOAT4 (11741988_at) / RFU 11764193_at / Fold change /veh 11764193_at / RFU TMEM53 (11763286_at) / Fold change /veh TMEM53 (11763286_at) / RFU MAGEB2 (11727129_at) / Fold change /veh MAGEB2 (11727129_at) / RFU TMEM200A (11744735_a_at) / Fold change /veh TMEM200A (11744735_a_at) / RFU CCDC152 (11751479_a_at) / Fold change /veh CCDC152 (11751479_a_at) / RFU FAM211A (11726209_a_at) / Fold change /veh FAM211A (11726209_a_at) / RFU RGS16 (11746705_a_at) / Fold change /veh RGS16 (11746705_a_at) / RFU VCAN (11755009_s_at) / Fold change /veh VCAN (11755009_s_at) / RFU RHOB (11743442_s_at) / Fold change /veh RHOB (11743442_s_at) / RFU RGS16 (11720943_a_at) / Fold change /veh RGS16 (11720943_a_at) / RFU RGS16 (11720944_at) / Fold change /veh RGS16 (11720944_at) / RFU, VPS4B / Fold change vs veh, VPS4B / RFU, CREB1 / Fold change vs veh, CREB1 / RFU, DNAJC13 / Fold change vs veh, DNAJC13 / RFU, GNAQ / Fold change vs veh, GNAQ / RFU, CDK5R1 / Fold change vs veh, CDK5R1 / RFU, ZRANB3 / Fold change vs veh, ZRANB3 / RFU, CUL4A / Fold change vs veh, CUL4A / RFU, CCNY / Fold change vs veh, CCNY / RFU, UFL1 / Fold change vs veh, UFL1 / RFU, COG3 / Fold change vs veh, COG3 / RFU, DIAPH2 / Fold change vs veh, DIAPH2 / RFU, SKA2 / Fold change vs veh, SKA2 / RFU, AFF3 / Fold change vs veh, AFF3 / RFU, LMF1 / Fold change vs veh, LMF1 / RFU, IPO11 / Fold change vs veh, IPO11 / RFU, DFFB / Fold change vs veh, DFFB / RFU, FOXP1 / Fold change vs veh, FOXP1 / RFU, CARD8 / Fold change vs veh, CARD8 / RFU, STRN3 / Fold change vs veh, STRN3 / RFU, ADK / Fold change vs veh, ADK / RFU, RASSF2 / Fold change vs veh, RASSF2 / RFU, WIPF1 / Fold change vs veh, WIPF1 / RFU, LARP1B / Fold change vs veh, LARP1B / RFU, RASA1 / Fold change vs veh, RASA1 / RFU, RB1 / Fold change vs veh, RB1 / RFU, PPFIA1 / Fold change vs veh, PPFIA1 / RFU, MAT2A / Fold change vs veh, MAT2A / RFU, CCT5 / Fold change vs veh, CCT5 / RFU, WDR92 / Fold change vs veh, WDR92 / RFU, CUX1 / Fold change vs veh, CUX1 / RFU, TTC7A / Fold change vs veh, TTC7A / RFU, TMEM135 / Fold change vs veh, TMEM135 / RFU, DEPTOR / Fold change vs veh, DEPTOR / RFU, CPM / Fold change vs veh, CPM / RFU, DNAJB6 / Fold change vs veh, DNAJB6 / RFU, CACNA2D3 / Fold change vs veh, CACNA2D3 / RFU, DTX4 / Fold change vs veh, DTX4 / RFU, TFCP2 / Fold change vs veh, TFCP2 / RFU, GMCL1 /// GMCL1P1 / Fold change vs veh, GMCL1 /// GMCL1P1 / RFU, AEBP2 / Fold change vs veh, AEBP2 / RFU, SNHG1 /// SNORD22 /// SNORD25 /// SNORD26 /// SNORD27 /// SNORD28 /// SNORD29 /// SNORD31 / Fold change vs veh, SNHG1 /// SNORD22 /// SNORD25 /// SNORD26 /// SNORD27 /// SNORD28 /// SNORD29 /// SNORD31 / Fold change (Aza/veh), C12orf56 (ProbeSet 11735607_a_at) / Fold change (ACY-1035/veh), C12orf56 (ProbeSet 11735607_a_at) / Fold change (Aza/veh), FGFR1OP (ProbeSet 11751329_s_at) / Fold change (ACY-1035/veh), FGFR1OP (ProbeSet 11751329_s_at) / Fold change (Aza/veh), VPS36 (ProbeSet 11739960_a_at) / Fold change (ACY-1035/veh), VPS36 (ProbeSet 11739960_a_at) / RFU SYPL1 (11715823_x_at) / Fold change /veh SYPL1 (11715823_x_at) / RFU IGFBP7 (11715501_s_at) / Fold change /veh IGFBP7 (11715501_s_at) / RFU REEP3 (11722064_at) / Fold change /veh REEP3 (11722064_at) / RFU IGLL1 (11728026_x_at) / Fold change /veh IGLL1 (11728026_x_at): dose or concentration left out as unconfirmed. The following applies: ProbeSet 11754362_a_at; LIST D.

We go through one compound from paper PMC5218480 (PLoS ONE, 2017).

With `Nc1ncn([C@@H]2O[C@H](CO)[C@@H](O)[C@H]2O)c(=O)n1` [azacitidine], the “Fold change vs veh, TTC7A” value was determined as 0.72.
